Laboratory results reported in patent publication EP1561465A2, “Methods of use of fluoroquinolone compounds against bacteria” (LG Life Sciences, Ltd., priority 1999, dated 2001).
Values after ≈ are worked out from the molar mass of the structure shown. Like-named read-outs stand apart in the source and are kept apart here.

What was measured:
Assay in all cases: MIC by NCCLS broth microdilution, 1100 Japanese clinical isolates 1997-1998
Assay type in all cases: cell-based
Streptococcus pyogenes = Streptococcus pyogenes (n=51)
[1] = tested on: Staphylococcus epidermidis; settings: for MIC50 / MIC90: Staphylococcus epidermidis
Salmonella spp. = Salmonella spp. (n=29)
Staphylococcus aureus = settings: for MIC: Staphylococcus aureus quinolone resistant
Enterococcus gallinarum = settings: Enterococcus gallinarum, GALLINARUM
Citrobacter freundii = tested on: Citrobacter freundii
[2] = Staphylococcus epidermidis oxacillin susceptible (n=35)
[3] = Staphylococcus epidermidis oxacillin resistant (n=43)
[4] = Staphylococcus aureus oxacillin susceptible (n=41)
[5] = Staphylococcus aureus, Staphylococcus aureus oxacillin resistant (n=57)

NC1CCN(c2nc3c(cc2F)c(=O)c(C(=O)O)cn3-c2ccc(F)cc2F)C1 (stereo not shown) [Tosufloxacin, tosufloxacin]
MIC90 (Streptococcus pyogenes): 1 µg/mL (≈ 2.47 µM) | MIC Range (Streptococcus pyogenes): 0.063 to 1 µg/mL | MIC50 (Streptococcus pyogenes; read-out: MIC50): 0.25 µg/mL (≈ 0.618 µM) | MIC Range [1, 2]: 0.032 to 16 µg/mL | MIC50 [1, 3]: 8 µg/mL (≈ 19.8 µM) | MIC90 [1, 3]: > 16 µg/mL | MIC50 [1, 2]: 0.063 µg/mL (≈ 0.156 µM) | MIC90 [1, 2]: 4 µg/mL (≈ 9.89 µM) | MIC50 (Salmonella spp.): 0.032 µg/mL (≈ 0.0791 µM) | MIC90 (Salmonella spp.): 0.063 µg/mL (≈ 0.156 µM) | MIC Range (Salmonella spp.): 0.016 to 0.063 µg/mL | MIC90 (Staphylococcus aureus; [4]): 0.125 µg/mL (≈ 0.309 µM) | MIC Range (Staphylococcus aureus; [4]): 0.016 to 1 µg/mL | MIC50 (Staphylococcus aureus; [5]): 4 µg/mL (≈ 9.89 µM) | MIC90 (Staphylococcus aureus; [5]): > 16 µg/mL | MIC50 (Staphylococcus aureus; Staphylococcus aureus, Staphylococcus aureus oxacillin susceptible (n=41)): 0.063 µg/mL (≈ 0.156 µM) | MIC (Staphylococcus aureus; Staphylococcus aureus, strain TMS1* (spontaneous mutant resistant to ciprofloxacin)): 0.25 µg/mL (≈ 0.618 µM) | MIC (Staphylococcus aureus; Staphylococcus aureus, strain TMS3, read-out: MIC): > 16 µg/mL | MIC (Staphylococcus aureus; Staphylococcus aureus, strain TMS4, read-out: MIC): 4 µg/mL (≈ 9.89 µM) | MIC (Staphylococcus aureus; Staphylococcus aureus, strain TMS5, read-out: MIC): 4 µg/mL (≈ 9.89 µM) | MIC (Staphylococcus aureus; Staphylococcus aureus, strain TMS6, read-out: MIC): 2 µg/mL (≈ 4.95 µM) | MIC (Enterococcus gallinarum): 0.125 µg/mL (≈ 0.309 µM) | MIC (Enterococcus gallinarum; Enterococcus gallinarum (vanC1), strain TMS1, read-out: MIC): 0.25 µg/mL (≈ 0.618 µM) | MIC (Enterococcus gallinarum; Enterococcus gallinarum (vanC1), strain TMS2, read-out: MIC): 0.5 µg/mL (≈ 1.24 µM) | MIC (Enterococcus gallinarum; Enterococcus gallinarum (vanC1), strain TMS3, read-out: MIC): 0.5 µg/mL (≈ 1.24 µM) | MIC50 (Citrobacter freundii; Citrobacter freundii): 0.125 µg/mL (≈ 0.309 µM) | MIC90 (Citrobacter freundii; Citrobacter freundii (n=39)): 2 µg/mL (≈ 4.95 µM) | MIC Range (Citrobacter freundii; Citrobacter freundii (n=39)): 0.016 to 2 µg/mL
